Values quoted from earlier work, collected in patent publication US9583325B2, “System and method of delicate membrane condensed phase membrane introduction mass spectrometry (CP-MIMS)” (priority 2013, dated 2017).

How the values were obtained:
[1] = SRC Physical Properties Database
[2] = for Log Kow: Table 1, SRC Physical Properties Database

Question: With CC(C)C1=CC2=CC[C@@H]3[C@](C)(CCC[C@@]3(C)C(=O)O)[C@H]2CC1 [Abietic Acid, Abietic acid] as the molecule, how does the Vapour pressure [1] read?
Answer: Its Vapour pressure is 4.3 × 10^−5 Pa.

Question: What about the “Log Kow” value [2] of the same molecule?
Answer: The value was 6.46.

Question: For Cc1ccc(C)c(OCCCC(C)(C)C(=O)O)c1 [Gemfibrozil, 5-(2,5-dimethylphenoxy)-2,2-dimethyl-pentanoic acid], which Vapour pressure [1] is on record?
Answer: The Vapour pressure was 8.1 × 10^−5 Pa.

Question: And the “Log Kow” value [2]?
Answer: The value was 4.30.

Question: Which Vapour pressure [1] does the source give for Oc1cc(Cl)ccc1Oc1ccc(Cl)cc1Cl [Triclosan, 5-chloro-2-(2,4-dichlorophenoxy)phenol] here?
Answer: Its Vapour pressure is 8.6 × 10^−5 Pa.

Question: And the “Log Kow” value [2]?
Answer: Its value is 4.76.

Question: Which Vapour pressure [1] does the source give for nonylphenol here?
Answer: Its Vapour pressure is 1.15 Pa.

Question: And the “Log Kow” value [2]?
Answer: The value was 5.76.

Question: And the “log Kow” value ([2]; values given in text of Example 10)?
Answer: The value was 6.04.
